# Test results taken from patent publication US7226925B2, “Compounds, their use and preparation” (Biovitrum AB, priority 2002, dated 2007).
# Structures can show the parent of a compound that is named as a salt.
# How the values were obtained:
# [1] = target: T1, human 5-HT2A receptor (Homo sapiens, UniProt P28223); experiment: In vitro functional assay, intracellular calcium mobilisation in CHO cells; assay type: cell-based; conditions: for EC50: calcium mobilisation, CHO cells; for Efficacy 5-HT2A: maximum response at 1 μM relative to maximum response of 5-HT at 1 μM
# T1 construct: expressed in transfected cells; host or cells: CHO cells
# Description: (§1) The ability of the compounds to mobilise intracellular calcium at the 5HT2A and 5-HT2B receptors was determined similarly using CHO cells expressing the human 5-HT2A or human 5-HT2B receptors.
# (§2) The maximum functional responses of the compounds, at 1 μM, at the 5-HT2A, 5-HT2B and 5-HT2C receptors are expressed relative to the maximum response of 5-HT (serotonin) at a concentration of 1 μM.
# [2] = target: T2, human 5-HT2B receptor (Homo sapiens, UniProt P41595); experiment: as above; assay type: cell-based; conditions: for EC50: calcium mobilisation, CHO cells; for Efficacy 5-HT2B: maximum response at 1 μM relative to maximum response of 5-HT at 1 μM
# T2 construct: expressed in transfected cells; host or cells: CHO cells
# Description: as §1, §2
# [3] = target: T3, human 5-HT1A receptor (Homo sapiens, UniProt P08908); experiment: Affinity assay, displacement of 3H-8-OH-DPAT, CHO cell line; assay type: binding; conditions: 3H-8-OH-DPAT radioligand, CHO cells
# T3 construct: expressed in transfected cells; host or cells: CHO cell line
# T3 sequence (P08908 1-422): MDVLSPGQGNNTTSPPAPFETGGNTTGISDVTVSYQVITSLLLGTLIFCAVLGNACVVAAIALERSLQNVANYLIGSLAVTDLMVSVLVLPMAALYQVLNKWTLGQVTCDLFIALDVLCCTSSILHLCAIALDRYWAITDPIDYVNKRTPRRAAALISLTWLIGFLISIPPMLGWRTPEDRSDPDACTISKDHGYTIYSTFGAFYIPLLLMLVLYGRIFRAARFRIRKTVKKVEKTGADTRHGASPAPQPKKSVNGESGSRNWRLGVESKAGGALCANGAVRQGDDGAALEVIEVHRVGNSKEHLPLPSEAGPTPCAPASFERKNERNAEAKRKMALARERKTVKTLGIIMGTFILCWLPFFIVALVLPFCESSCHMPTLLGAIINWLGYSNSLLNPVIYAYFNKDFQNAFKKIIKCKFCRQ
# Description: (§3) The binding affinities of the compounds for the human 5-HT2A and 5-HT2B receptors in CHO cell lines were determined using ^3H-labelled lysergic acid diethyl amide (LSD) and 5-HT, respectively, as radioligands. The binding affinities of the compounds for the human 5-HT1A and 5-HT1B receptors in CHO cell lines were determined similarly using ^3H-labelled 8-hydroxy-2-(di-n-propylamino)tetralin (8-OH-DPAT) and 5-HT, respectively, as radioligands.
# [4] = target: T1, human 5-HT2A receptor; experiment: Affinity assay, displacement of 3H-LSD, CHO cell line; assay type: binding; conditions: 3H-LSD radioligand, CHO cells
# Description: as §3
# [5] = target: T4, human 5-HT2C receptor (Homo sapiens, UniProt P28335); experiment: In vitro functional assay, intracellular calcium mobilisation in transfected HEK293 cells (FLUO-3); assay type: cell-based; conditions: for EC50: calcium mobilisation, HEK293 cells; for Efficacy 5-HT2C: maximum response at 1 μM relative to maximum response of 5-HT at 1 μM
# T4 construct: expressed in transfected cells
# T4 sequence (P28335 33-458): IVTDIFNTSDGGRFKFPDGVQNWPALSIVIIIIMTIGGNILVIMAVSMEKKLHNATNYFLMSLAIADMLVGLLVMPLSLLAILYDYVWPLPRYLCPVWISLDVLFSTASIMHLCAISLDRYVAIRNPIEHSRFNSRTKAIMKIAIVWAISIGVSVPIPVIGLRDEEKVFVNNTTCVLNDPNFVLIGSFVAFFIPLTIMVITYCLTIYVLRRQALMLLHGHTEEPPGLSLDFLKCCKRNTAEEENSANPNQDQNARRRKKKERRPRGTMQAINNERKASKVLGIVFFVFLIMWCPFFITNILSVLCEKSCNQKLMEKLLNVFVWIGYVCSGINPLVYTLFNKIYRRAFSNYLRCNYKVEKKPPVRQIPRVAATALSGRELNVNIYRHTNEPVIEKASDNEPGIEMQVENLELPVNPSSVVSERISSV
# Description: The agonist efficacy at the 5-HT2C receptor of the compounds in the Examples was determined by the ability of each compound to mobilise intracellular calcium in transfected HEK293 cells, stably expressing the human 5-HT2C receptor protein, using the calcium-chelating fluorescent dye FLUO-3 (Sigma, St. Louis, Mo., U.S.A.).
# [6] = target: T4, human 5-HT2C receptor; experiment: Affinity assay, displacement of 3H-5-HT, membranes of transfected HEK293 cells, Scintillation Proximity Assay; assay type: binding; conditions: 3H-5-HT radioligand
# Description: The receptor affinity of compounds in the Examples was determined in competition experiments, where the ability of each compound in serial dilution to displace ^3H-labelled 5-HT, bound to membranes prepared from a transfected HEK293 cell line stably expressing the human 5-HT2C receptor protein, was monitored by Scintillation Proximity Assay technology. Non-specific binding was defined using 5 μM mianserin.
# [7] = target: T5, human 5-HT1B receptor (Homo sapiens, UniProt P28222); experiment: Affinity assay, displacement of 3H-5-HT, CHO cell line; assay type: binding; conditions: 3H-5-HT radioligand, CHO cells
# T5 construct: expressed in transfected cells; host or cells: CHO cell line
# Description: as §3
# [8] = target: T2, human 5-HT2B receptor; experiment: as above; assay type: binding; conditions: 3H-5-HT radioligand, CHO cells
# Description: as §3
# T2 sequence (P41595 whole entry): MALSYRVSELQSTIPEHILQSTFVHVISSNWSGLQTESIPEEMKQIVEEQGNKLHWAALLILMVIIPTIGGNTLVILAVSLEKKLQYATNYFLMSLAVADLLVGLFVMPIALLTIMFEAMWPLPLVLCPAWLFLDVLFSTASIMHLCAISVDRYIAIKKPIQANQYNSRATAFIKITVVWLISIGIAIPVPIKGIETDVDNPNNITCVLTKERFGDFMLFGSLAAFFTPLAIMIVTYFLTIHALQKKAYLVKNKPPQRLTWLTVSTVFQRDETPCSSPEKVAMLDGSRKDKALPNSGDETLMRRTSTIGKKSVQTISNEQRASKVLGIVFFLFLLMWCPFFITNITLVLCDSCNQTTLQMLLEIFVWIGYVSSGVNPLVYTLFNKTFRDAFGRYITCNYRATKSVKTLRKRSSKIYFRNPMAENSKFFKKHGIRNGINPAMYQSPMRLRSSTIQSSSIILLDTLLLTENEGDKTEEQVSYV
# T1 sequence (P28223 whole entry): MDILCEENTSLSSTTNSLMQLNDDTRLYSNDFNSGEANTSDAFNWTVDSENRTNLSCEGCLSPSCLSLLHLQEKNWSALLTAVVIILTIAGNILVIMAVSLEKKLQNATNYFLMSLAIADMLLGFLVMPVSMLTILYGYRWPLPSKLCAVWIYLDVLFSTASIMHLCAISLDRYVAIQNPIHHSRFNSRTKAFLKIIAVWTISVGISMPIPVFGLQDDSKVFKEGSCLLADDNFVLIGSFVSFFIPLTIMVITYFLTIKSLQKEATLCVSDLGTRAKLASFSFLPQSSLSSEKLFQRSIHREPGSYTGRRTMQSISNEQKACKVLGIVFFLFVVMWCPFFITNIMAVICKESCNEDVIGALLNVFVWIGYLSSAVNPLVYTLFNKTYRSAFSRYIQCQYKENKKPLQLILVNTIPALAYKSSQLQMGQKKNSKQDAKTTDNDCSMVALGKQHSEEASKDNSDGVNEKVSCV
# T5 sequence (P28222 whole entry): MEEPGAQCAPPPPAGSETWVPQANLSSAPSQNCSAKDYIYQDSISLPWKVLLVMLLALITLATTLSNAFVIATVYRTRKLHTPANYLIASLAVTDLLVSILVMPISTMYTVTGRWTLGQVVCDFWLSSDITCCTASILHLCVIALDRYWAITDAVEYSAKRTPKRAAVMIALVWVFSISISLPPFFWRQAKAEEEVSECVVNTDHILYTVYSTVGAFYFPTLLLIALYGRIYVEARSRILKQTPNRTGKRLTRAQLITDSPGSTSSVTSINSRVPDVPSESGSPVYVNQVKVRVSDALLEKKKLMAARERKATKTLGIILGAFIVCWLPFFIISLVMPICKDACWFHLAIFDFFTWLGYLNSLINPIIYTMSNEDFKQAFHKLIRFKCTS
Compound,EC50 [1] [nM],Efficacy 5-HT2A [1] [%],EC50 [2] [nM],Efficacy 5-HT2B [2] [%],Ki [3] [nM],Ki [4] [nM],EC50 [5] [nM],Efficacy 5-HT2C [5] [%],Ki [6] [nM],Ki [7] [nM],Ki [8] [nM],melting point [°C]
"CC(C)N(CCOc1ncccc1OCCOc1nccnc1N1CCNC[C@H]1C)C(C)C [Example 2, N,N-Diisopropyl-(2-(3-[2-(2-(R)-methyl-3,4,5,6-tetrahydro-2H-[1,2′]bipyrazinyl-3′-yloxy)-ethoxy]-pyridin-2-yloxy)-ethyl)-amine]",260,40,900,33,380,> 1000,3.9,111,10,200,> 1000,–
"C[C@@H]1CNCCN1c1nccnc1OCCOc1cccnc1OCCN(C)C (as salt: acetate) [Example 1, N,N-Dimethyl-(2-(3-[2-(2-(R)-methyl-3,4,5,6-tetrahydro-2H-[1,2′]bipyrazinyl-3′-yloxy)-ethoxy]-pyridin-2-yloxy)-ethyl)-amine]",–,–,–,–,–,–,–,–,–,–,–,75
"CC(C)N(CCOc1ncccc1OCCOc1nccnc1N1CCNC[C@H]1C)C(C)C (as salt: acetate) [Example 2, N,N-Diisopropyl-(2-(3-[2-(2-(R)-methyl-3,4,5,6-tetrahydro-2H-[1,2′]bipyrazinyl-3′-yloxy)-ethoxy]-pyridin-2-yloxy)-ethyl)-amine]",–,–,–,–,–,–,–,–,–,–,–,87
"C[C@@H]1CNCCN1c1nccnc1OCCOc1cccnc1OCCN(C)C [Example 1, N,N-Dimethyl-(2-(3-[2-(2-(R)-methyl-3,4,5,6-tetrahydro-2H-[1,2′]bipyrazinyl-3′-yloxy)-ethoxy]-pyridin-2-yloxy)-ethyl)-amine]",1200,14,1940,16,800,> 1000,4.2,117,12,> 1000,> 1000,–
